Measurements as given in ChEMBL document CHEMBL4265904, “Hybrids of arenobufagin and benzoisoselenazol reducing the cardiotoxicity of arenobufagin” (Bioorg Med Chem Lett, 2018).
Calls of active or inactive are those of the source. The calls are words filed in the database; no cut-off is given here.

Experiments:
[1] = Cytotoxic activity against human AC16 cells assessed as cell swelling at 1 uM after 24 hrs by phase contrast microscopic method; type: cell-based
Homo sapiens = species: Homo sapiens; experiment: Cytoprotective activity against H2O2-induced oxidative damage in human AC16 cells at 1 uM preincubated for 30 mins followed by H2O2 addition and measured after 6 hrs; type: functional, cell-based
[2] = Antiproliferative activity against human AC16 cells by MTT assay; type: cell-based
[3] = Cytotoxic activity against human AC16 cells assessed as cell detachment from substratum at 1 uM after 24 hrs by phase contrast microscopic method; type: cell-based
[4] = Selectivity index, ratio of IC50 for human AC16 cells to IC50 for human HepG2 cells; type: toxicity; settings: AC16 cells and HepG2 cells, read-out: Ratio IC50
[5] = Antiproliferative activity against human HepG2/ADM cells by MTT assay; type: functional, cell-based
HepG2 [6] = experiment: Antiproliferative activity against human HepG2 cells by MTT assay; type: functional, cell-based
[7] = Toxicity in ip dosed Kunming mouse assessed as mortality; type: organism-based; settings: in vivo
HepG2 [8] = experiment: Antiproliferative activity against human HepG2 cells after 48 hrs by MTT assay; type: functional, cell-based; settings: HepG2, 48 h
HepG2 [9] = experiment: Inhibition of ROS generation in human HepG2 cells at 1 uM after 2 hrs by DCFH-DA staining based method; type: functional, cell-based

Row | Structure (SMILES) | Activity [1] | Activity (Homo sapiens) | IC50 [2] [nM] | Activity [3] | selectivity ratio [4] | IC50 [5] [nM] | IC50 (HepG2 [6]) [nM] | LD50 [7] [mg/kg] | IC50 (HepG2 [8]) [nM] | inhibition (HepG2 [9])
1 | Cc1ccc2c(=O)n([C@@H](Cc3ccccc3)C(=O)O[C@H]3CC[C@@]4(C)[C@H](CC[C@@H]5[C@@H]4[C@H](O)C(=O)[C@]4(C)[C@@H](c6ccc(=O)oc6)CC[C@]54O)C3)[se]c2c1 | Non-Toxic | Active | 3570 | Non-Toxic | 7.3 | 7940 | 489 | – | – | –
2 | C[C@]12CC[C@H](O)C[C@H]1CC[C@@H]1[C@@H]2[C@H](O)C(=O)[C@]2(C)[C@@H](c3ccc(=O)oc3)CC[C@]12O | Toxic | – | 5 | Toxic | 0.25 | 56 | 20 | 20 | 0.1 to 10 | –
3 | Cc1ccc2c(=O)n(CC(=O)O[C@H]3CC[C@@]4(C)[C@H](CC[C@@H]5[C@@H]4[C@H](O)C(=O)[C@]4(C)[C@@H](c6ccc(=O)oc6)CC[C@]54O)C3)[se]c2c1 | – | – | 2130 | – | 3.51 | 2450 | 607 | – | – | –
4 | C[C@]12CC[C@H](OC(=O)[C@H](Cc3ccccc3)n3[se]c4cc(C(F)(F)F)ccc4c3=O)C[C@H]1CC[C@@H]1[C@@H]2[C@H](O)C(=O)[C@]2(C)[C@@H](c3ccc(=O)oc3)CC[C@]12O | Non-Toxic | Active | 4300 | Non-Toxic | 16.2 | 9740 | 265 | – | – | Active
5 | COc1ccc2c(=O)n([C@@H](Cc3ccccc3)C(=O)O[C@H]3CC[C@@]4(C)[C@H](CC[C@@H]5[C@@H]4[C@H](O)C(=O)[C@]4(C)[C@@H](c6ccc(=O)oc6)CC[C@]54O)C3)[se]c2c1 | Non-Toxic | Active | 2200 | Non-Toxic | 7.21 | 5860 | 305 | – | – | Active
6 | C[C@]12CC[C@H](OC(=O)[C@H](Cc3ccccc3)n3[se]c4ccccc4c3=O)C[C@H]1CC[C@@H]1[C@@H]2[C@H](O)C(=O)[C@]2(C)[C@@H](c3ccc(=O)oc3)CC[C@]12O | Non-Toxic | Active | 3210 | Non-Toxic | 9.47 | 5590 | 339 | – | – | Active
7 | O=c1c2ccccc2[se]n1-c1ccccc1 | – | Active | – | – | – | – | – | – | – | –
8 | CC[C@H](C)[C@@H](C(=O)O[C@H]1CC[C@@]2(C)[C@H](CC[C@@H]3[C@@H]2[C@H](O)C(=O)[C@]2(C)[C@@H](c4ccc(=O)oc4)CC[C@]32O)C1)n1[se]c2cc(OC)ccc2c1=O | – | – | 15000 | – | 1.03 | 36700 | 14500 | – | – | –
